Measurements reported in patent publication US20240424113A1, “CONJUGATES COMPRISING ANTIFUNGALS AND HEAT SHOCK PROTEIN 90 (HSP90) INHIBITORS AND METHODS OF USE THEREOF” (Bright Angel Therapeutics Inc., priority 2021, published 2024).
pKd: −log10 of the molar value. In brackets after ≈: the same amount, converted by molar mass.

Columns and labels:
[1] = target: Hsp90 Nuclear Binding Domain (NBD) (Candida albicans (strain SC5314 / ATCC MYA-2876) (Yeast), UniProt P46598); experiment: Surface Plasmon Resonance (SPR) binding, C. albicans Hsp90 NBD; settings: biotinylated Hsp90 NBD on streptavidin chip, 25° C., 1:1 binding model
Chain of Hsp90 Nuclear Binding Domain (NBD) (Candida albicans (strain SC5314 / ATCC MYA-2876) (Yeast), UniProt P46598) (P46598 1-218 limits assumed): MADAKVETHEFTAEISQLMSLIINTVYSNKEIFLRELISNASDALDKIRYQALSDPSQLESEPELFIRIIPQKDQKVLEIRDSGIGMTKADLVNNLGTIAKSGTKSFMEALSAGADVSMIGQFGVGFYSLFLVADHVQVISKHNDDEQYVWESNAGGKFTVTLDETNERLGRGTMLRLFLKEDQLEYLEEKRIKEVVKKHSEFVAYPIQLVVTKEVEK
Procedure, shortened: (§1)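 Biacore S200 at 25° C; AviTag-biotinylated recombinant Hsp90 NBD captured on streptavidin chip at 2000-2500 RU. Compound dilution series run in HBS-P pH 7.4 with 2% DMSO at 40 μL/min, 60 s association and 600 s dissociation. Sensorgrams fitted to a 1:1 binding model.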

[2] = tested on: CaCl2; experiment: Antifungal sensitivity testing (broth microdilution MIC); assay type: cell-based; settings: 96-well broth microdilution
Procedure, shortened: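 Broth microdilution MIC per a modified published protocol; compounds dissolved in DMSO, fluconazole in water; duplicates in at least two independent experiments. Fungicidal activity checked by spotting MIC-plate cultures onto YPD agar, read after 24 h at 30° C.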

[3] = tested on: HepG2 cells; experiment: Mammalian cell toxicity (Cell Titer-Glo); assay type: cell-based; settings: Table 6, 48 h incubation
Description: Mammalian Cell Toxicity. HepG2 cells were seeded overnight at 500 cells/well in 384-well plate, then incubated with compounds (10-point concentration titration) for 48 h. Cell Titer-Glo® reagent ([…]) was added to each well and after 10-minute incubation at room temperature the luminescent signal was measured using an Envision plate reader (Perkin Elmer).

[4] = target: Hsp90 Nuclear Binding Domain (NBD) (Aspergillus fumigatus, UniProt P40292); experiment: Surface Plasmon Resonance (SPR) binding, A. fumigatus Hsp90 NBD; settings: biotinylated Hsp90 NBD on streptavidin chip, 25° C., 1:1 binding model; NB undefined
Chain of Hsp90 Nuclear Binding Domain (NBD) (Aspergillus fumigatus, UniProt P40292) (P40292 whole entry, looked up, the tested form may be a part): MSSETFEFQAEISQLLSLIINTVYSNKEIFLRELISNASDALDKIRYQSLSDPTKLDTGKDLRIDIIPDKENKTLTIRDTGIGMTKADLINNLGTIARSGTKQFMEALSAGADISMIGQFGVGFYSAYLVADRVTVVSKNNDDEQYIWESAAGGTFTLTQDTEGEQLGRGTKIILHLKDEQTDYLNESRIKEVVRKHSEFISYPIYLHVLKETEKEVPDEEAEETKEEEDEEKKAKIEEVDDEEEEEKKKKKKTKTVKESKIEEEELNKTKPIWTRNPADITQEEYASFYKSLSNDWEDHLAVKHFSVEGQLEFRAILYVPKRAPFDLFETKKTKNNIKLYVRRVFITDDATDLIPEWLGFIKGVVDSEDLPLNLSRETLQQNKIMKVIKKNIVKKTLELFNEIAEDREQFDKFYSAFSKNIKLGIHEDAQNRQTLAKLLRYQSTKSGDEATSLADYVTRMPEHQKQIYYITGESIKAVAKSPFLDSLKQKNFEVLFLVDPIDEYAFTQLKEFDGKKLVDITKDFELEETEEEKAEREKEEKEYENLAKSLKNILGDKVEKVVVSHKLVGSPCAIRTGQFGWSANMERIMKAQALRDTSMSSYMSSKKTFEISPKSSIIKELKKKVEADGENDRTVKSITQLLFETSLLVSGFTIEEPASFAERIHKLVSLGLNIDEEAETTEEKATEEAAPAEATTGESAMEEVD
Procedure, shortened: as §1

Row | Structure (SMILES) | pKd [1] | MIC50 ([2]; Table 4) [µM] | MIC50 ([2]; Table 6) [µM] | HepG2 MIC50 [3] [µM] | pKd [4]
1 | CC(F)(F)COC(=O)N1Cc2nc(N)nc(-c3c(Cl)cc(Cl)cc3OCCC(O)(Cn3cncn3)c3ccc(F)cc3F)c2C1 (stereo not drawn) [Compound I-115, 2,2-difluoropropyl-2-amino-4-(2,4-dichloro-6-(3-(2,4-difluorophenyl)-3-hydroxy-4-(1H-1,2,4-triazol-1-yl)butoxy)phenyl)-5,7-dihydro-6H-pyrrolo[3,4-d]pyrimidine-6-carboxylate] | 5.92 | 6.5 (≈ 4.36 µg/mL) | 6.5 (≈ 4.36 µg/mL) | >20 | 5.93
2 | Nc1nc2sc(C(=O)N[C@@H]3CCN(CCC(O)(Cn4cncn4)c4ccc(F)cc4F)C3)cc2n(-c2ccc3c(c2)N(c2ccccc2)CCO3)c1=O (stereo partly drawn) [Compound I-36, 3-amino-N-((3R)-1-(3-(2,4-difluorophenyl)-3-hydroxy-4-(1H-1,2,4-triazol-1-yl)butyl)pyrrolidin-3-yl)-2-oxo-1-(4-phenyl-3,4-dihydro-2H-benzo[b][1,4]oxazin-6-yl)-1,2-dihydrothieno[2,3-b]pyrazine-6-carboxamide] | 8.68 | 8 (≈ 5.92 µg/mL) | 8 (≈ 5.92 µg/mL) | 1.9 | 8.43
3 | Nc1nc2sc(C(=O)NC[C@H]3CO[C@](Cn4cncn4)(c4ccc(F)cc4F)C3)cc2n(-c2ccc3c(c2)N(c2ccccc2)CCO3)c1=O [Compound I-27, N-(((3S,5S)-5-((1H-1,2,4-triazol-1-yl)methyl)-5-(2,4-difluorophenyl)tetrahydrofuran-3-yl)methyl)-3-amino-2-oxo-1-(4-phenyl-3,4-dihydro-2H-benzo[b][1,4]oxazin-6-yl)-1,2-dihydrothieno[2,3-b]pyrazine-6-carboxamide] | 8.04 | 2.5 (≈ 1.74 µg/mL) | 2.5 (≈ 1.74 µg/mL) | >10 | 7.87
4 | Nc1nc2sc(C(=O)N[C@@H]3CCN(C[C@@](O)(Cn4cncn4)c4ccc(F)cc4F)C3)cc2n(-c2ccc3c(c2)N(c2ccccc2)CCO3)c1=O [Compound I-11, 3-amino-N-((R)-1-((R)-2-(2,4-difluorophenyl)-2-hydroxy-3-(1H-1,2,4-triazol-1-yl)propyl)pyrrolidin-3-yl)-2-oxo-1-(4-phenyl-3,4-dihydro-2H-benzo[b][1,4]oxazin-6-yl)-1,2-dihydrothieno[2,3-b]pyrazine-6-carboxamide] | 9.10 | 2.5 (≈ 1.81 µg/mL) | 2.5 (≈ 1.81 µg/mL) | 2.4 | 7.61
5 | Nc1nc2sc(CNCC3CCN(C[C@@](O)(Cn4cncn4)c4ccc(F)cc4F)CC3)cc2n(-c2ccc3c(c2)N(c2ccccc2)CCO3)c1=O [Compound I-122, (R)-3-amino-6-((((1-(2-(2,4-difluorophenyl)-2-hydroxy-3-(1H-1,2,4-triazol-1-yl)propyl)piperidin-4-yl)methyl)amino)methyl)-1-(4-phenyl-3,4-dihydro-2H-benzo[b][1,4]oxazin-6-yl)thieno[2,3-b]pyrazin-2(1H)-one] | 5.79 | 6.5 (≈ 4.81 µg/mL) | 6.5 (≈ 4.81 µg/mL) | 14.3 | 5.72
6 | Nc1nc2sc(C(=O)NC3CCN(CCCC(O)(Cn4cncn4)c4ccc(F)cc4F)CC3)cc2n(-c2ccc3c(c2)N(c2ccccc2)CCO3)c1=O (stereo not drawn) [Compound I-64, 3-amino-N-(1-(4-(2,4-difluorophenyl)-4-hydroxy-5-(1H-1,2,4-triazol-1-yl)pentyl)piperidin-4-yl)-2-oxo-1-(4-phenyl-3,4-dihydro-2H-benzo[b][1,4]oxazin-6-yl)-1,2-dihydrothieno[2,3-b]pyrazine-6-carboxamide] | 9.05 | 3.12 (≈ 2.4 µg/mL) | 3.13 (≈ 2.4 µg/mL) | 2 | 7.71
